Results published in the supplement of paper PMC5412046.
Structures can show the parent of a compound that is named as a salt.

Key:
SB.mhdgc-1 [1] = test: area under the dose-response curve of % viability (trapezoidal, 11 doses) (% viability x log10 concentration); higher = less cytotoxic; conditions: SB.mhdgc-1 (hereditary c.1380delA CDH1 gastric cancer)
How it was run: (§1)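 Viability, normalised to DMSO, is listed either at the highest concentration or as trapezoidal area under the curve. It was measured in patient-derived gastric cancer cells, hereditary or sporadic, exposed for 48 h to 11 threefold-diluted compound concentrations and then assayed with CellTiter-Glo luminescence.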

SB.msgc-1 [2] = test: as above; conditions: SB.msgc-1 (sporadic gastric cancer)
How it was run: as §1

SB.mhdgc-1 [3] = test: viability at highest tested concentration (MAXR) relative to DMSO; higher = less cytotoxic; conditions: SB.mhdgc-1 (hereditary c.1380delA CDH1 gastric cancer)
How it was run: as §1

SB.msgc-1 [4] = test: as above; conditions: SB.msgc-1 (sporadic gastric cancer)
How it was run: as §1

SMILES	area under the dose-response curve (SB.mhdgc-1 [1])	area under the dose-response curve (SB.msgc-1 [2])	viability (SB.mhdgc-1 [3])	viability (SB.msgc-1 [4])
COc1cc2nc(N3CCN(C(=O)C4CCCO4)CC3)nc(N)c2cc1OC (stereo not given) [Terazosin hydrochloride] (top concentration 46.0829 µM)	496	539	98.7%	104%
CN(C/C=C/C#CC(C)(C)C)Cc1cccc2ccccc12 [Terbinafine hydrochloride] (top concentration 46.0829 µM)	496	557	109%	97.5%
C/C(O)=C(\C#N)C(=O)Nc1ccc(C(F)(F)F)cc1 [Teriflunomide] (top concentration 46.0829 µM)	515	464	13.5%	20.3%
CCN(CC)CCOc1ccc(Cc2ccccc2)cc1 [Tesmilifene hydrochloride] (top concentration 46.0829 µM)	584	330	63.8%	40.1%
C[C@]12CC[C@H]3[C@@H](CCC/4=C/C(=O)CC[C@]34C)[C@@H]1CC[C@@H]2OC(=O)CCC5CCCC5 [Testosterone cypionate] (top concentration 46.0829 µM)	513	448	63.1%	60.5%
CCC(=O)OC1CCC2C3CCC/4=C/C(=O)CC[C@@]4(C)C3CC[C@]12C (stereo not given in full) [Testosterone propionate] (top concentration 46.0829 µM)	540	484	106%	83.4%
C[C@]12CC[C@H]3[C@@H](CCC/4=C/C(=O)CC[C@]34C)[C@@H]1CC[C@@H]2O [Testosterone] (top concentration 46.0829 µM)	486	468	87.8%	75.8%
COc1cc2c(cc1OC)C1CC(=O)C(CC(C)C)CN1CC2 (stereo not given) [Tetrabenazine] (top concentration 46.0829 µM)	566	538	102%	98.4%
CN(C)[C@H]\1[C@@H]2C[C@H]3C(=C(O)\[C@]2(O)C(=O)\C(=C1O)C(N)=O)/C(=O)C4=C(O)C=CC=C4[C@@]3(C)O [Tetracycline hydrochloride] (top concentration 46.0829 µM)	531	566	88.8%	81.7%
COc1ccc2c(c1OC)CN1CCc3cc4c(cc3C1C2)OCO4 (stereo not given) [Tetrahydroberberine Canadine] (top concentration 46.0829 µM)	550	292	72.5%	23.9%
COc1ccc(CC2NCCc3cc(OC)c(OC)cc32)cc1OC (stereo not given) [Tetrahydropapaverine] (top concentration 46.0829 µM)	437	429	51.3%	56.7%
O=C1NC(O)CCN1[C@@H]1O[C@H](CO)[C@@H](O)[C@H]1O (stereo not given in full) [Tetrahydrouridine] (top concentration 46.0829 µM)	546	550	103%	113%
COc1ccc2cc1Oc1ccc(cc1)C[C@H]1c3cc(c(OC)cc3CCN1C)Oc1c(OC)c(OC)cc3c1[C@H](C2)N(C)CC3 [Tetrandrine] (top concentration 46.0829 µM)	538	507	57.7%	48.5%
O=C1CCC(N2C(=O)c3ccccc3C2=O)C(=O)N1 (stereo not given) [Thalidomide] (top concentration 46.0829 µM)	526	522	149%	114%
C/C=C(/C)C(=O)O[C@H]1C(C)=C2[C@H]([C@@H]1OC(=O)CCCCCCC)[C@@](C)(OC(C)=O)C[C@H](OC(=O)CCC)[C@@]1(O)[C@H]2OC(=O)[C@@]1(C)O [Thapsigargin] (top concentration 46.0829 µM)	237	268	2.37%	2.33%
Cn1cnc2c1c(=O)[nH]c(=O)n2C [Theobromine] (top concentration 46.0829 µM)	531	373	4.3%	1.84%
Cn1c(=O)c2[nH]cnc2n(C)c1=O [Theophyllamine] (top concentration 46.0829 µM)	560	614	87.8%	123%
c1ccc2[nH]c(-c3cscn3)nc2c1 [Thiabendazole] (top concentration 46.0829 µM)	469	487	66.9%	104%

SMILES	area under the dose-response curve (SB.mhdgc-1 [1])	area under the dose-response curve (SB.msgc-1 [2])	viability (SB.mhdgc-1 [3])	viability (SB.msgc-1 [4])
C[S+](=O)([O-])c1ccc([C@@H](O)[C@@H](CO)NC(=O)C(Cl)Cl)cc1 [Thiamphenicol] (top concentration 46.0829 µM)	462	508	43.5%	83.5%
O=C(NCc1ccccc1)c1csc(Nc2ccncn2)n1 [Thiazovivin] (top concentration 46.0829 µM)	413	496	15.5%	56.6%
S=P(N1CC1)(N1CC1)N1CC1 [ThioTEPA] (top concentration 46.0829 µM)	519	514	47.4%	75%
Clc1ccccc1CN1CCc2sccc2C1 [Ticlopidine hydrochloride] (top concentration 46.0829 µM)	536	552	119%	108%
COc1ccc2cc(-c3[nH]c(-c4ccc([S+](C)[O-])cc4)nc3-c3ccncc3)ccc2c1 (stereo not given) [Tie-2 kinase inhibitor] (top concentration 46.0829 µM)	520	485	35.6%	49.6%
CN(C)c1cc(NC(=O)CNC(C)(C)C)c(O)c2c1C[C@H]1C[C@H]3[C@H](N(C)C)C(O)=C(C(N)=O)C(=O)[C@@]3(O)C(O)=C1C2=O [Tigecycline] (top concentration 46.0829 µM)	578	525	99.4%	98.6%
Clc1ccc(C(Cn2ccnc2)OCc2ccsc2Cl)c(Cl)c1 (stereo not given) [Tioconazole] (top concentration 46.0829 µM)	544	538	87.4%	57.8%
NC/1=N/C2=C([NH]C=N2)C(=S)N1 [Tioguanine] (top concentration 46.0829 µM)	467	445	60.5%	23.4%
CC(S)C(=O)NCC(=O)O (stereo not given) [Tiopronin] (top concentration 46.0829 µM)	473	557	81.2%	110%
C[N+]1(C)[C@@H]2CC(OC(=O)C(O)(c3cccs3)c3cccs3)C[C@H]1[C@@H]1O[C@@H]12 (stereo not given in full) [Tiotropium bromide] (top concentration 46.0829 µM)	477	528	118%	113%
O=c1oc2cc(O)ccc2s1 [Tioxolone] (top concentration 46.0829 µM)	577	543	35.5%	86.2%
C[N]1C=NC=C1[C@@](N)(C2=CC=C(Cl)C=C2)C3=CC=C4N(C)C(=O)\C=C(\C5=CC=CC(=C5)Cl)C4=C3 [Tipifarnib] (top concentration 46.0829 µM)	485	434	4.28%	24.2%
O=C(O)C(=O)c1cn(Cc2ccccc2)c2ccc(-c3ccc(OC(F)(F)F)cc3)cc12 [Tiplasinin] (top concentration 46.0829 µM)	597	468	102%	72.1%
O=C1NC(=O)[C@@H](c2cn3c4c(cccc24)CCC3)[C@@H]1c1c[nH]c2ccccc12 [Tivantinib] (top concentration 46.0829 µM)	369	392	39.4%	36.2%
COc1cc2nccc(Oc3ccc(NC(=O)Nc4cc(C)on4)c(Cl)c3)c2cc1OC [Tivozanib] (top concentration 46.0829 µM)	460	446	26.3%	48.1%
ClC1=C(N\C2=N\CCN2)C3=NSN=C3C=C1 [Tizanidine hydrochloride] (top concentration 46.0829 µM)	536	570	131%	132%
NC[C@H]1O[C@H](O[C@H]2[C@H](O)[C@@H](O[C@H]3O[C@H](CO)[C@@H](O)[C@H](N)[C@H]3O)[C@H](N)C[C@@H]2N)[C@H](N)C[C@@H]1O [Tobramycin] (top concentration 46.0829 µM)	536	515	110%	112%
